Assays:
[1] = biological target: human Nav1.8 sodium channel (Homo sapiens, UniProt Q9Y5Y9); test: Blocking activity on sodium channel 1.8 (Nav1.8), whole-cell manual patch clamp; format: cell-based; conditions: for inhibition at 0.001 µM: read-out: inhibition Percent @1 nM, 1 nM compound; for inhibition at 0.01 µM: read-out: inhibition Percent @10 nM, 10 nM compound
[2] = In vivo pharmacokinetics in rats, single intravenous injection or oral gavage; conditions: male, SD, plasma, Rat; for Vd: read-out: Vss
Method: The in vivo pharmacokinetics in rats were evaluated via a single intravenous injection or oral gavage administration in this test example. • 1. Test Methods and Conditions: Male SD rats were fasted overnight and administered a single intravenous dose of 2 mg/kg or 1 mg/kg of the test compound (solvent for Intravenous administration was 5% DMSO/10% Solutol® HS 15/10% EtOH/75% saline, with a dosing volume of 5 mL/kg) and an oral gavage dose of 10 mg/kg or 5 mg/kg of the test compound (solvent for administration was 0.5% CMC-Na, with a dosing volume of 10 mL/kg), respectively. • 2. Sampling Information: Blood samples (0.2 mL) were collected from the retroorbital venous plexus at the designated time points: 0.25, 0.5, 1.0, 2.0, 3.0, 4.0, 6.0, 8.0, and 24 hours before and after dosing (a 5 min sampling point was added for the intravenous administration group), respectively. The samples were placed in EDTA-K2 tubes and centrifuged at 11,000 rpm for 5 minutes. Plasma was separated and frozen at -20°C. • 3. Assay Information: LC/MS/MS was used to determine the concentration of the parent drug in rat/mouse plasma following intravenous and oral gavage administration of the test compound. Pharmacokinetic parameters in rat/mouse plasma were calculated for both administration routes, and the bioavailability of each compound in rats was also calculated. Table 5: Intravenous Pharmacokinetic Information of Representative Compounds

[3] = intravenous, single dose 2 mg/kg or 1 mg/kg (figure not given)

Chain of human Nav1.8 sodium channel (Q9Y5Y9 whole entry): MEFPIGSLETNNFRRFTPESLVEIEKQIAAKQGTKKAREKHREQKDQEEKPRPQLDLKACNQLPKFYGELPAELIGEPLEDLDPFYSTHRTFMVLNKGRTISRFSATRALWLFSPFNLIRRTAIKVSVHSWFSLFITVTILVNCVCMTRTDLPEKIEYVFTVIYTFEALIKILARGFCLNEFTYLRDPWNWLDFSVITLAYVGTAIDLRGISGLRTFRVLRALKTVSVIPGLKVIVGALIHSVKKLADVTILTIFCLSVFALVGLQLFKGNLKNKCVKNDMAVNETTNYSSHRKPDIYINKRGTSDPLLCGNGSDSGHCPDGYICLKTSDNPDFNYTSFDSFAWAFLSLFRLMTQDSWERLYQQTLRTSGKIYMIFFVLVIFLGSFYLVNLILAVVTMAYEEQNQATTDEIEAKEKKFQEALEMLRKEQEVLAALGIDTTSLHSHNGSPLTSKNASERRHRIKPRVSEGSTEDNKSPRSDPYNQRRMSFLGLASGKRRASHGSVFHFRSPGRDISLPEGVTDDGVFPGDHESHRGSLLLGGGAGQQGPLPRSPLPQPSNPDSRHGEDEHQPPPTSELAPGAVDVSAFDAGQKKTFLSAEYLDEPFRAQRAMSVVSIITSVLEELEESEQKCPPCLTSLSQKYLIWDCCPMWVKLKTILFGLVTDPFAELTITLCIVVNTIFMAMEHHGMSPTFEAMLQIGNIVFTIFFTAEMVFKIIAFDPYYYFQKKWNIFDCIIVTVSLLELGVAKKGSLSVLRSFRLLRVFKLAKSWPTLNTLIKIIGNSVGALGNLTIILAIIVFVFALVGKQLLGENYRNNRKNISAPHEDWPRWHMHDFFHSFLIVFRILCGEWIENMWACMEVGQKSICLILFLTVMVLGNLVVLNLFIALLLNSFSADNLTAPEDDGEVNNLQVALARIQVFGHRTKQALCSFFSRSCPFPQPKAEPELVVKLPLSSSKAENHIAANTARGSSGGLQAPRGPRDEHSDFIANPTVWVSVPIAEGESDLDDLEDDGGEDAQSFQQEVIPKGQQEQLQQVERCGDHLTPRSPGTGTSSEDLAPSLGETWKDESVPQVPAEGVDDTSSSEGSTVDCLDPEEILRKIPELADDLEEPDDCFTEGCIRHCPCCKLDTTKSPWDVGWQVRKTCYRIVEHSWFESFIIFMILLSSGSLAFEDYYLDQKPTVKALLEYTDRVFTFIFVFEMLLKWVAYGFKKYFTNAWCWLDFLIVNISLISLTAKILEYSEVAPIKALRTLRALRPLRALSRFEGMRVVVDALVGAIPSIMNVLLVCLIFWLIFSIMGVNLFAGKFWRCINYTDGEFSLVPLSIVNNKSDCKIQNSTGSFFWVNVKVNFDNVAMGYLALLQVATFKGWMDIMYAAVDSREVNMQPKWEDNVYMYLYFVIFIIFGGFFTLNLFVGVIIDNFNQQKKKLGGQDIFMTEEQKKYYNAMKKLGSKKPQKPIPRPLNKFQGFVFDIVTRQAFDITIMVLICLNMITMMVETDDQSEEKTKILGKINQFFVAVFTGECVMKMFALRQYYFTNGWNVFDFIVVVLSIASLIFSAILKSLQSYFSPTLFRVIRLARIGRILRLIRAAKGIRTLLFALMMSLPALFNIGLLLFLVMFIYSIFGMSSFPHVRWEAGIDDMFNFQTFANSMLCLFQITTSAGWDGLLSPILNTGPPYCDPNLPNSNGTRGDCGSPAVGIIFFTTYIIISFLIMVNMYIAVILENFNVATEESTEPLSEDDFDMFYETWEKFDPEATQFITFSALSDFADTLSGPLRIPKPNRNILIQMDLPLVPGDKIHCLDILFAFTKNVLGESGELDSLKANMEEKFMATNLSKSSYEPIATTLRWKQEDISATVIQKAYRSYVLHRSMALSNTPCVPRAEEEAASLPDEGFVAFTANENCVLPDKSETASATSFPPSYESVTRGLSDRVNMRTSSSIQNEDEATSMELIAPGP

Structure (SMILES): Cc1nc(N2CCCC(F)(F)CC2)c(C(=O)Nc2ccc(F)c(C(N)=NO)c2)cc1Cl [Compound I-1, 5-chloro-2-(4,4-difluoroazepan-1-yl)-N-(4-fluoro-3-(N'-hydroxyamidino)phenyl)-6-met hylnicotinamide]
- inhibition at 0.001 µM [1]: 71%
- AUC(0-t) [2, 3]: 1290 ng·h/mL
- clearance [2, 3]: 29.6 mL/min/kg
- half-life [2, 3]: 0.723 h
- Vd [2, 3]: 0.638 L/kg
- AUC(0-t) ([2]; oral gavage, 10mg/kg): 546 ng·h/mL
- Cmax ([2]; oral gavage, 10mg/kg): 433 ng/mL
- Tmax ([2]; oral gavage, 10mg/kg): 0.5 h
- half-life ([2]; oral gavage, 10mg/kg): 1.49 h
- bioavailability ([2]; oral gavage, 10mg/kg): 8.7%

Structure (SMILES): CC(C)c1nc(N2CCCC(F)(F)CC2)c(C(=O)Nc2ccc(F)c(C(N)=NO)c2)cc1Cl [Compound I-24, 5-chloro-2-(4,4-difluoroazepan-1-yl)-N-(4-fluoro-3-(N'-hydroxyamidino)phenyl)-6-isop ropylnicotinamide]
- inhibition at 0.001 µM [1]: 56%
- AUC(0-t) [2, 3]: 1260 ng·h/mL
- clearance [2, 3]: 12.8 mL/min/kg
- half-life [2, 3]: 2 h
- Vd [2, 3]: 1.38 L/kg
- AUC(0-t) ([2]; oral gavage, 5mg/kg): 1950 ng·h/mL
- Cmax ([2]; oral gavage, 5mg/kg): 244 ng/mL
- Tmax ([2]; oral gavage, 5mg/kg): 2 h
- half-life ([2]; oral gavage, 5mg/kg): 2.73 h
- bioavailability ([2]; oral gavage, 5mg/kg): 30.9%

Structure (SMILES): NC(=NO)c1cc(NC(=O)c2cc(Cl)c(C(F)(F)F)cc2N2CCCC(F)(F)CC2)ccc1F [Compound I-33, 5-chloro-2-(4,4-difluoroazepan-1-yl)-N-(4-fluoro-3-(N'-hydroxyamidino)phenyl)-4-(trifluoromethyl)benzamide]
- inhibition at 0.001 µM [1]: 86%
- AUC(0-t) [2, 3]: 2270 ng·h/mL
- clearance [2, 3]: 7.44 mL/min/kg
- half-life [2, 3]: 2.67 h
- Vd [2, 3]: 1.16 L/kg
- AUC(0-t) ([2]; oral gavage, 5mg/kg): 8640 ng·h/mL
- Cmax ([2]; oral gavage, 5mg/kg): 623 ng/mL
- Tmax ([2]; oral gavage, 5mg/kg): 6 h
- half-life ([2]; oral gavage, 5mg/kg): 5.12 h
- bioavailability ([2]; oral gavage, 5mg/kg): 38.9%

Structure (SMILES): NC(=NO)c1cc(NC(=O)c2cc(Cl)c(C(F)(F)F)nc2N2CCCC(F)(F)CC2)ccc1F [Compound I-36, 5-chloro-2-(4,4-difluoroazepan-1-yl)-N-(4-fluoro-3-(N'-hydroxyamidino)phenyl)-6-(trifluoromethyl)nicotinamide]
- inhibition at 0.001 µM [1]: 50%
- AUC(0-t) [2, 3]: 4440 ng·h/mL
- clearance [2, 3]: 3.91 mL/min/kg
- half-life [2, 3]: 3.28 h
- Vd [2, 3]: 0.823 L/kg
- AUC(0-t) ([2]; oral gavage, 5mg/kg): 4410 ng·h/mL
- Cmax ([2]; oral gavage, 5mg/kg): 386 ng/mL
- Tmax ([2]; oral gavage, 5mg/kg): 4.3 h
- half-life ([2]; oral gavage, 5mg/kg): 3.15 h
- bioavailability ([2]; oral gavage, 5mg/kg): 38.9%

Structure (SMILES): N=C(N)c1cc(NC(=O)c2cc(Cl)c(C(F)F)nc2C2CCCC(F)(F)CC2)ccc1F (centres unmarked) [Compound I-39, N-(3-amidino-4-fluorophenyl)-5-chloro-2-(4,4-difluorocycloheptan-1-yl)-6-difluorome thylnicotinamide]
- inhibition at 0.001 µM [1]: 51%

Structure (SMILES): [2H]Cc1nc(N2CCCC(F)(F)CC2)c(C(=O)Nc2ccc(F)c(C(N)=NO)c2)cc1Cl [Compound I-42, 5-chloro-2-(4,4-difluoroazepan-1-yl)-N-(4-fluoro-3-(N'-hydroxyamidino)phenyl)-6-deu teromethylnicotinamide]
- inhibition at 0.001 µM [1]: 65%

Structure (SMILES): CN(C)c1nc(N2CCCC(F)(F)CC2)c(C(=O)Nc2ccc(F)c(C(N)=NO)c2)cc1Cl [Compound I-43, 5-chloro-2-(4,4-difluoroazepan-1-yl)-6-(dimethylamino)-N-(4-fluoro-3-(N'-hydroxyamidino)phenyl)nicotinamide]
- inhibition at 0.001 µM [1]: 55%

Structure (SMILES): NC(=NO)c1cc(NC(=O)c2cc(Cl)c(CF)nc2N2CCCC(F)(F)CC2)ccc1F [Compound I-44, 5-chloro-2-(4,4-difluoroazepan-1-yl)-N-(4-fluoro-3-(N'-hydroxyamidino)phenyl)-6-(fluoromethyl)nicotinamide]
- inhibition at 0.001 µM [1]: 32%

Structure (SMILES): CCc1nc(N2CCCC(F)(F)CC2)c(C(=O)Nc2ccc(F)c(C(N)=NO)c2)cc1Cl [Compound I-45, 5-chloro-2-(4,4-difluoroazepan-1-yl)-6-ethyl-N-(4-fluoro-3-(N'-hydroxyamidino)pheny I)nicotinamide]
- inhibition at 0.001 µM [1]: 94%

Structure (SMILES): NC(=NO)c1cc(NC(=O)c2cc(Cl)c(N3CCCC3)nc2N2CCCC(F)(F)CC2)ccc1F [Compound I-46, 5-chloro-2-(4,4-difluoroazepan-1-yl)-N-(4-fluoro-3-(N'-hydroxyamidino)phenyl)-6-(pyrrolidinyl)nicotinamide]
- inhibition at 0.01 µM [1]: 50%

Structure (SMILES): NC(=NO)c1cc(NC(=O)c2cc(Cl)c(Cl)cc2N2CCCC(F)(F)CC2)ccc1F [Compound I-47, 4,5-dichloro-2-(4,4-difluoroazepan-1-yl)-N-(4-fluoro-3-(N'-hydroxyamidino)phenyl)be nzamide]
- inhibition at 0.01 µM [1]: 80%

Structure (SMILES): NC(=NO)c1cccc(NC(=O)c2cc(Cl)c(C(F)(F)F)cc2N2CCCC(F)(F)CC2)c1 [Compound I-48, 5-chloro-2-(4,4-difluoroazepan-1-yl)-N-(3-(N'-hydroxyamidino)phenyl)-4-trifluoromet hylbenzamide]
- inhibition at 0.01 µM [1]: 77%

Structure (SMILES): NC(=NO)c1cccc(NC(=O)c2c(N3CCCC(F)(F)CC3)ccc(Cl)c2C(F)(F)F)c1 [Compound I-49, 5-chloro-2-(4,4-difluoroazepan-1-yl)-N-(3-(N'-hydroxyamidino)phenyl)-6-(trifluoromethyl)benzamide]
- inhibition at 0.01 µM [1]: 77%

Structure (SMILES): COc1c([C@H]2[C@H](C(=O)Nc3ccnc(C(N)=O)c3)O[C@@](C)(C(F)(F)F)[C@H]2C)ccc(F)c1F [VX-548, reference compound]
- IC50 [1]: 0.34 ± 0.04 nM
- AUC(0-t) [2, 3]: 804 ng·h/mL
- clearance [2, 3]: 20.7 mL/min/kg
- half-life [2, 3]: 0.67 h
- Vd [2, 3]: 0.92 L/kg
- AUC(0-t) ([2]; oral gavage, 5mg/kg): 518 ng·h/mL
- Cmax ([2]; oral gavage, 5mg/kg): 157 ng/mL
- Tmax ([2]; oral gavage, 5mg/kg): 0.5 h
- half-life ([2]; oral gavage, 5mg/kg): 2.68 h
- bioavailability ([2]; oral gavage, 5mg/kg): 14%

From patent publication EP4700018A1, “NAV1.8 INHIBITORS, PREPARATION METHOD THEREFOR AND USE THEREOF” (Shanghai Institute of Materia Medica, Chinese Academy of …, priority 2023, dated 2024)
